Results as given in patent publication US20120071493A1, “SUBSTITUTED 8-SULFONYL-2,3,4,5-TETRAHYDRO-1H-GAMMA-CARBOLINES, LIGANDS AND PHARMACEUTICAL COMPOSITION; METHOD FOR THE PRODUCTION AND USE OF SAME” (priority 2009, published 2012).
Counter-ions that a name gives are not always drawn.

Legend:
[1] = molecular target: T1, recombinant human 5-HT6 receptor (Homo sapiens, UniProt P50406); assay: Antagonistic activity towards serotonin 5-HT6 receptors, cAMP cell function experiment; format: cell-based; settings: HEK 293 cells expressing recombinant human 5-HT6 receptor; cAMP response to 10 μM serotonin; read-out: IC50, ability to block serotonin 5-HT6 receptors in the setting of cell function experiments
T1 construct: host or cells: HEK 293 cells with tetracycline-induced T-Rex system (Invitrogen)
T1 sequence (P50406 whole entry): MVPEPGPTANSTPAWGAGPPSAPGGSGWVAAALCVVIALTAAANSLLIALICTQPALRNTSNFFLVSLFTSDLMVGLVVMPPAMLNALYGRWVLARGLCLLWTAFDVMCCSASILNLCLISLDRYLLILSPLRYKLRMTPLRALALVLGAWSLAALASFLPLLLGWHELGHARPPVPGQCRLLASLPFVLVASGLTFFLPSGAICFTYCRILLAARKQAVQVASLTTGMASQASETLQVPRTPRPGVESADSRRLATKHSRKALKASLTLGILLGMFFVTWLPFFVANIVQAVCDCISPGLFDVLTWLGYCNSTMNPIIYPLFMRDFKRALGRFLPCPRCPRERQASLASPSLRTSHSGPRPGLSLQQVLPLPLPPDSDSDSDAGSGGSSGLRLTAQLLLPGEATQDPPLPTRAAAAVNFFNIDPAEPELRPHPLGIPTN
Method: Determination of antagonistic activity of substituted 8-sulfonyl-2,3,4,5-tetrahydro-1H-γ-carbolines of the general formula 1 towards serotonin 5-HT6 receptors. HEK 293 cells with tetracycline-induced T-Rex system (Invitrogen, USA) consistently expressing recombinant human 5-HT6 receptor, production of Etogen Scientific (USA), were used. The cells were grown in DMEM/10% FBS/1% AAS medium with Blasticidine S and Zeocin (both—Invitrogen, USA). According to the method worked up by the producer of T-Rex system tetracycline hydrochloride was added to the medium with the cells for the purpose of activation of 5-HT6 receptor expression. The cells were embedded in 96-well plates (30,000-40,000 cells per well) and incubated in 5%-CO2 incubator at 37° C. for 24 hs. Before experiments cells medium was replaced by Hank's balanced salt solution (HBSS), comprising 0.137 M NaCl, 5.4 mM KCl, 0.25 mM Na2HPO4, 0.44 mM KH2PO4, 1.3 mM CaCl2, 1.0 mM MgSO4, 5 mM HEPES (pH 7.4), 0.05% BSA and 1 mM IBMX. The tested compounds of general formula 1 were added to the cells in various concentrations. After incubation of the cells for 15 min at room temperature serotonin was added to them up to final concentration of 10 μM and incubation was continued for 30 min. The newly formed cAMP was determined by reagent kit LANCE cAMP Kit, according to the method described by the kit manufacturer […] (PerkinElmer, CIIIA). […] The data given testify that novel γ-carbolines of the general formula 1 are effective serotonin 5-HT6 receptor antagonists. Some of γ-carbolines of the general formula 1 have IC50<0.5 μM in the setting of cell function experiments (IC50—antagonist concentration blocking 5-HT6 receptors for 50%).

[2] = tested on: male mice of BALB/c line; assay: Mice Behavior in the Elevated Plus Maze test; format: in vivo
Method: The experiments were carried out in aged male mice of BALB/c line weighing about 25 g. Animals were housed 5-7 per cage with water and food available. None of animals was acquainted with experimental set-up before. Each experimental group included 8 animals.
The procedure used was described earlier by Lister (Lister R. G. The use of a plus-maze to measure anxiety in the mouse. Psychopharmacology, 1987; 92:180-185). Plexiglass set-up consisted of two opened arms of 30×5 cm size and two closed arms of 30×5×15 cm size was used. Side arms were closed with transparent plexiglass and were connected with central zone via platform of 5×5 cm size. Opened arms, central platform and floor were made of black plexiglass. The set-up was mounted on a metallic base which was placed 38.5 cm above floor level.
Animals were injected intraperitoneally with placebo, Buspirone (5 mg/kg, 30 minutes before training), Lorazepam (0.05 mg/kg, 60 minutes before training) or with one of the compounds of the general formula 1, for example, compound 1.1.1(4).HCl or compound 1.2.1(3).HCl in doses 0.05 mg/kg and 0.2 mg/kg. Buspirone and Lorazepam were introduced in maximal effective dose, at which side sedative effect and general decrease of exploratory activity (number of arm entries during the test) were not observed yet.
Each mouse was placed in maze center with its head towards the opened arm. Over a period of 5 minutes the sequence and duration of arm entries were registered by means of computer program. Criterion for entry is location of all animal's paws inside the arm at the same time. Index of preference was calculated as ratio of the time spent by animal in opened arms as well as the number of entries into opened arms to the total time spent by it in opened and closed arms or, respectively, to the whole number of entries to arms of both types. The number of defecations left by mouse was regarded as additional parameter characterizing anxiety state.

[3] = tested on: male mice of SHK line; assay: Novel Object Recognition test, Scopolamine-disturbed recognition; format: in vivo; settings: Scopolamine 1 mg/kg
Method: The test was carried out in aged male mice of SHK line. Plexiglass plus maze, consisted of 4 dead-end chambers (numbered 1, 2, 3, 4), joined together through the fifth central chamber, was used in experiments. Mouse was placed into central chamber and allowed to explore the maze. Floor was cleaned after each animal. The sequence of chamber entries and duration of visits were registered by observer. Test was ended after 13 entries into dead-end chambers. Criterion for entry was location of all animal's paws inside the chamber at the same time.
During the training an animal was placed in the maze with one equiform bowl in each side chamber. In the course of testing (one hour after training) two opposite standing bowls were replaced by identical flasks, and animal was allowed to explore the maze. The time spent by animal in each side chamber was registered during the periods of training and testing. Index of novel object recognition was calculated as ratio of time spent by animal in side chambers with novel objects to the total time spent by it in all side chambers. In comparison with the training phase the appearance of novel object extends the time spent by animal in the chamber with novel object (so-called effect of novel object recognition). The recognition of novel objects was disturbed under action of Scopolamine administered in 1 mg/kg dose intraperitoneally 30 minutes before training, and recognition index was decreased.

| SMILES | IC50 [1] | further results |
| --- | --- | --- |
| CN1CCc2[nH]c3ccc(S(=O)(=O)c4cccnc4)cc3c2C1 [1.1(1)•2HCl] | 0.085 µM |  |
| CN1CCc2[nH]c3ccc(S(=O)(=O)c4ccncc4)cc3c2C1 [1.1(2)•2HCl] | 6.9 µM |  |
| Cc1ccc(S(=O)(=O)n2c3c(c4cc(S(=O)(=O)c5ccccc5)ccc42)CN(C)CC3)cc1 [1.1(10)•HCl, 2-Methyl-5-(4-methylphenylsulfonyl)-8-(phenylsulfonyl)-2,3,4,5-tetrahydro-1H-γ-caboline hydrochloride] | ~10 µM |  |
| CN1CCc2c(c3cc(S(=O)(=O)c4ccccc4)ccc3n2CCc2ccccn2)C1 [1.1(16)•2HCl] | 0.615 µM |  |
| CN1CCc2[nH]c3ccc(S(=O)(=O)c4cccc(F)c4)cc3c2C1 [1.1.1(3)•HCl] | 0.085 µM |  |
| CN1CCc2[nH]c3ccc(S(=O)(=O)N(C)C)cc3c2C1 [1.2(1), N,N,2-Trimethyl-2,3,4,5-tetrahydro-1H-γ-carboline-8-sulfonamide] | ~10 µM |  |
| O=S(=O)(Nc1cccc(F)c1)c1ccc2[nH]c3c(c2c1)CN(Cc1ccccc1)CC3 [1.2(6)•HCl] | 0.022 µM |  |
| CN1CCN(S(=O)(=O)c2ccc3[nH]c4c(c3c2)CN(C)CC4)CC1 [1.2(10)] | 62 µM |  |
| O=C1CC2(CCCC2)CC(=O)N1CCCCN1CCN(c2ncccn2)CC1 [Buspirone, reference compound] |  | anxiolytic effect in elevated plus maze ([2]; 5 mg/kg intraperitoneally, 30 minutes before training): well-marked anxiolytic effect |
| Cc1ccc2c(c1)c1c(n2CCc2ccc(C)nc2)CCN(C)C1 [Dimebon, reference compound] |  | prevention of Scopolamine influence on novel object recognition ([3]; 0.1 mg/kg intraperitoneally 5 minutes before training): could be prevented |
| O=C1Nc2ccc(Cl)cc2C(c2ccccc2Cl)=NC1O (stereo not drawn) [Lorazepam, reference compound] |  | anxiolytic effect in elevated plus maze ([2]; 0.05 mg/kg intraperitoneally, 60 minutes before training): well-marked anxiolytic effect |
| Nc1c2c(nc3ccccc13)CCCC2 [Tacrine, reference compound] |  | prevention of Scopolamine influence on novel object recognition ([3]; 10 mg/kg intraperitoneally 30 minutes before training): could be prevented |
